Reference: ChEMBL document CHEMBL4257081, “Inhibitors of the kynurenine pathway” (2016)
Active and inactive are the calls of the source. The calls are words filed in the database; no cut-off is given here.

How the values were obtained:
Mus musculus [1] = test: In vivo inhibition of IDO1 in po dosed LPS-induced C57BL/6 mouse assessed as reduction in plasma kynurenine levels measured after 2 to 48 hrs by LC/MS/MS analysis; format: functional
CT26 [2] = test: Synergistic antitumor activity against mouse CT26 cells implanted in Balb/c mouse assessed as reduction in tumor volume at 75 mg/kg, po bid for 35 days starting from day 5 post doxorubucin administration followed by second doxorubicin dosing at 3 weeks post doxorubicin dose measured 4 hrs post last dose; format: functional, organism-based
[3] = Ratio of drug level in brain to plasma in Sprague-Dawley rat at 10 mg/kg, iv administered as single dose measured after 3 hrs by LC/MS/MS analysis; format: ADME, organism-based; details: brain and plasma, read-out: BPR
[4] = Ratio of drug level in brain to plasma in Sprague-Dawley rat at 10 mg/kg, iv administered as single dose measured after 0.5 hrs by LC/MS/MS analysis; format: ADME, organism-based; details: brain and plasma, read-out: BPR
CT26 [5] = test: Antitumor activity against mouse CT26 cells implanted in Balb/C mouse assessed as reduction in tumor growth at 75 mg/kg, po bid measured on day 1,4,6,9,11 and 14 relative to control; format: functional; set-up: scale not given: the % may be the effect or the level left
[6] = Ratio of drug level in brain to plasma in Sprague-Dawley rat at 10 mg/kg, iv administered as single dose measured after 1 hr by LC/MS/MS analysis; format: ADME, organism-based; details: brain and plasma, read-out: BPR
CT26 [7] = test: Synergistic antitumor activity against mouse CT26 cells implanted in Balb/c mouse assessed as reduction in time of tumor progression at 75 mg/kg, po bid for 35 days starting from day 5 post doxorubucin administration followed by second doxorubicin dosing at 3 weeks post doxorubicin dose; format: functional, organism-based
Mus musculus [8] = test: Reduction in plasma kynurenine levels in Balb/C mouse implanted with mouse CT26 cells at 75 mg/kg, po bid measured after 14 days by LC/MS/MS analysis relative to control; format: functional; set-up: scale not given: the % may be the effect or the level left
Mus musculus [9] = test: Reduction in kynurenine levels in tumor of Balb/C mouse implanted with mouse CT26 cells at 50 mg/kg, po bid for 4 days measured 2 hrs post last dose by LC/MS/MS analysis relative to control; format: functional; set-up: scale not given: the % may be the effect or the level left
Mus musculus [10] = test: Reduction in plasma kynurenine levels in Balb/C mouse implanted with mouse CT26 cells at 50 mg/kg, po bid for 4 days measured 2 hrs post last dose by LC/MS/MS analysis relative to control; format: functional; set-up: scale not given: the % may be the effect or the level left
[11] = molecular target: Tryptophan 2,3-dioxygenase (Homo sapiens, UniProt P48775); test: Inhibition of recombinant human TDO2 expressed in CHOK1 cells assessed as reduction in kynurenine formation using L-tryptophan as substrate measured after 2 hrs by LC/MS/MS analysis; format: cell-based
[12] = molecular target: T1, Indoleamine 2,3-dioxygenase 1 (Homo sapiens, UniProt P14902); test: Inhibition of recombinant human N-terminal His-tagged IDO1 (1 to 403 residues) expressed in Escherichia coli assessed as reduction in kynurenine formation using tryptophan as substrate measured by LC/MS/MS analysis
[13] = molecular target: T1, Indoleamine 2,3-dioxygenase 1; test: Inhibition of IDO1 in IFNgamma-stimulated human HeLa cells assessed as reduction in kynurenine formation using L-tryptophan as substrate measured after 15 mins by UV-vis HPLC analysis
Mus musculus [14] = test: Reduction in plasma kynurenine levels in Balb/C mouse implanted with mouse CT26 cells at 50 mg/kg, po bid measured after 14 days by LC/MS/MS analysis relative to control; format: functional; set-up: scale not given: the % may be the effect or the level left
CT26 [15] = test: Synergistic antitumor activity against mouse CT26 cells implanted in Balb/c mouse assessed as reduction in time of tumor progression at 50 mg/kg, po bid for 35 days starting from day 5 post doxorubucin administration followed by second doxorubicin dosing at 3 weeks post doxorubucin dose; format: functional, organism-based
CT26 [16] = test: Synergistic antitumor activity against mouse CT26 cells implanted in Balb/c mouse assessed as reduction in tumor volume at 50 mg/kg, po bid for 35 days starting from day 5 post doxorubucin administration followed by second doxorubicin dosing at 3 weeks post doxorubucin dose measured 4 hrs post last dose; format: functional, organism-based
CT26 [17] = test: Antitumor activity against mouse CT26 cells implanted in Balb/C mouse assessed as reduction in tumor growth at 50 mg/kg, po bid measured on day 1,4,6,9,11 and 14 relative to control; format: functional; set-up: scale not given: the % may be the effect or the level left
CT26 [18] = test: Antitumor activity against mouse CT26 cells implanted in Balb/C mouse assessed as reduction in tumor growth at 40 mg/kg, po bid measured on day 1,4,6,9,11 and 14; format: functional, organism-based
Mus musculus [19] = test: Reduction in plasma kynurenine levels in Balb/C mouse implanted with mouse CT26 cells at 40 mg/kg, po bid measured after 14 days by LC/MS/MS analysis relative to control; format: functional; set-up: scale not given: the % may be the effect or the level left
CT26 [20] = test: Antitumor activity against mouse CT26 cells implanted in Balb/C mouse assessed as reduction in tumor growth at 60 mg/kg, po bid measured on day 1,4,6,9,11 and 14 relative to control; format: functional; set-up: scale not given: the % may be the effect or the level left
Mus musculus [21] = test: Reduction in plasma kynurenine levels in Balb/C mouse implanted with mouse CT26 cells at 60 mg/kg, po bid measured after 14 days by LC/MS/MS analysis relative to control; format: functional; set-up: scale not given: the % may be the effect or the level left

Tryptophan 2,3-dioxygenase, sequence (P48775 whole entry, the tested form may be a part): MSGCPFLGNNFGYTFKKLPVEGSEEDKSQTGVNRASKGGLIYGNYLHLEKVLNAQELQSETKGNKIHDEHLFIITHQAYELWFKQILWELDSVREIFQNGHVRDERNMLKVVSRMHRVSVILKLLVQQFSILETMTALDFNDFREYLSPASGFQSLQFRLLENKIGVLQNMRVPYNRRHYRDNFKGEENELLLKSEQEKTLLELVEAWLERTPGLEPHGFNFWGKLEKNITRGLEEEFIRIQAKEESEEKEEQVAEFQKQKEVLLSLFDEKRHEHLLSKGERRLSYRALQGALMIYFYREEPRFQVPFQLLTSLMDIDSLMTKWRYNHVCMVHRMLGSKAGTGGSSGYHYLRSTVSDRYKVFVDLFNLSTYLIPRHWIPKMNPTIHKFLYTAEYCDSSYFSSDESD
T1 sequence (P14902 whole entry, the tested form may be a part): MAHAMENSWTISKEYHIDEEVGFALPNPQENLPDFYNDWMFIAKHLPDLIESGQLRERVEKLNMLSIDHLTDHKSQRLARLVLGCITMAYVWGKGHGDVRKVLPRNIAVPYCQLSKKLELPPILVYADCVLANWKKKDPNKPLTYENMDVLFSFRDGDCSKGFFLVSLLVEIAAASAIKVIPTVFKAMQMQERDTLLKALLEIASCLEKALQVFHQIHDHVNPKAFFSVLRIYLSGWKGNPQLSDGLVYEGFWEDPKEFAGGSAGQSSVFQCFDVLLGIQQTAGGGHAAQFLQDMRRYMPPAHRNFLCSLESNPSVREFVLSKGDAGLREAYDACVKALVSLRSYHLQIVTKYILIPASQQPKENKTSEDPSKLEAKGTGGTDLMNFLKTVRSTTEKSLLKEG

SMILES | inhibition (INH) (Mus musculus [1]) | Activity (Mus musculus [9]) | Activity (Mus musculus [10]) | also measured
N#Cc1ccc(-c2nccc3c(Nc4ccc(F)c(Cl)c4)c(N)oc23)cc1 | >50% |  |  | 
Nc1oc2c(-c3ccncc3)nccc2c1Nc1ccc(F)c(Cl)c1 | >50% |  |  | Activity (CT26 [2]): Active; Kp at 3 h [3]: 0.64; Kp at 0.5 h [4]: 0.67; Activity (CT26 [5]): 26 - 38%; Kp at 1 h [6]: 0.47; Activity (CT26 [7]): Active; Activity (Mus musculus [8]): 40 - 50%
CCOC(=O)Nc1oc2cnccc2c1N(C(=O)OCC)c1ccc(F)c(Cl)c1 | >50% | >50% | >50% | 
Nc1oc2c(-c3ccccc3)nc(Oc3ccccc3)cc2c1Nc1ccc(F)c(Cl)c1 |  |  |  | IC50 [11]: > 2000 nM; IC50 [12]: > 1000 nM
Cc1cc(-c2nccc3c(Nc4ccc(F)cc4)c(N)oc23)ccn1 | >50% |  |  | 
Nc1oc2c(-c3ccnc(N4CCOCC4)c3)nccc2c1Nc1ccc(F)c(Cl)c1 | >50% | >=25 - 50% | >50% | 
Nc1oc2c(-c3ccncc3)nccc2c1Nc1ccc(F)c(C(F)(F)F)c1 | >50% |  |  | 
C#Cc1cccc(Nc2c(N)oc3c(-c4ccccc4)nccc23)c1 | >50% |  |  | 
COc1ccc(-c2nccc3c(Nc4ccc(F)c(Cl)c4)c(N)oc23)cc1 | >50% |  |  | 
Nc1oc2c(F)nc(F)cc2c1Nc1ccc(F)c(Cl)c1 | >=25 - 50% | >50% | >=25 - 50% | 
Nc1sc2ccccc2c1Nc1ccc(F)c(Cl)c1 | >=25 - 50% |  |  | 
Nc1oc2c(-c3ccncc3)nc(F)cc2c1Nc1ccc(F)c(Cl)c1 | >50% | >=25 - 50% | <25% | 
N#Cc1nccc2c(Nc3ccc(F)c(C(F)(F)F)c3)c(N)oc12 | >50% | <25% | >=25 - 50% | 
Nc1oc2cnc(F)cc2c1Nc1ccc(F)c(C(F)(F)F)c1 |  |  |  | IC50 [11]: < 500 nM; IC50 [13]: < 200 nM
CCOC(=O)Nc1oc2c(C#N)nccc2c1N(C(=O)OCC)c1ccc(F)c(Cl)c1 |  | <25% | >=25 - 50% | 
Nc1oc2c(-c3ccc(F)c(F)c3F)nccc2c1Nc1ccc(F)c(Cl)c1 | >50% |  |  | 
Cc1cc(-c2nccc3c(Nc4ccc(F)c(Cl)c4)c(N)oc23)cc(C)n1 | >50% | >=25 - 50% | >=25 - 50% | 
Nc1oc2c(-c3ccc(F)c(F)c3)nccc2c1Nc1ccc(F)c(Cl)c1 | >=25 - 50% |  |  | 
CNC(=O)c1cc(-c2nccc3c(Nc4ccc(F)c(Cl)c4)c(N)oc23)ccn1 |  | >50% | >50% | 
Nc1sc2ccccc2c1Nc1cccc(Cl)c1 | >=25 - 50% |  |  | 
C#Cc1cccc(Nc2c(N)oc3c(CC)nccc23)c1 | >50% |  |  | 
Cc1cc(-c2nccc3c(Nc4ccc(F)c(Cl)c4)c(N)oc23)ccn1 | >50% | >50% | >50% | 

SMILES | inhibition (INH) (Mus musculus [1]) | Activity (Mus musculus [9]) | Activity (Mus musculus [10]) | also measured
COCCNC(=O)c1ccc(-c2nccc3c(Nc4ccc(F)c(Cl)c4)c(N)oc23)cc1 | >50% |  |  | 
Nc1oc2cnccc2c1Nc1ccc(F)c(Br)c1 | >50% |  |  | 
O=C(Nc1oc2cnccc2c1N(C(=O)OCc1ccccc1)c1ccc(F)c(Cl)c1)OCc1ccccc1 | >50% |  |  | 
Nc1sc2cnccc2c1Nc1ccc(F)c(Cl)c1 | <25% |  |  | 
Nc1oc2c(-c3ccncc3)nccc2c1Nc1ccc(F)c(F)c1 | >50% | >50% | >50% | Activity (Mus musculus [14]): 40 - 50%; Activity (CT26 [15]): Active; Activity (CT26 [16]): Active; Activity (CT26 [17]): 26 - 38%
Nc1oc2cnccc2c1Nc1ccc(F)c(F)c1 | >50% |  |  | IC50 [11]: 500 to 2000 nM; IC50 [12]: 200 to 1000 nM
COc1ccccc1-c1nccc2c(Nc3ccc(F)c(Cl)c3)c(N)oc12 |  | <25% | <25% | 
Cc1cc(-c2nccc3c(Nc4ccc(F)c(F)c4)c(N)oc23)ccn1 | >50% | >50% | >50% | 
Nc1oc2c(-c3cccc4ccccc34)nccc2c1Nc1ccc(F)c(Cl)c1 | >=25 - 50% | >50% | >50% | 
Nc1oc2cnc(Cl)cc2c1Nc1ccc(F)c(Cl)c1 | >50% |  |  | 
Nc1oc2c(-c3ccc(F)cc3)nccc2c1Nc1ccc(F)c(Cl)c1 | >50% |  |  | 
N#Cc1nccc2c(Nc3ccc(F)c(Cl)c3)c(N)oc12 | >50% | <25% | >=25 - 50% | 
Nc1sc2ccccc2c1Nc1ccccc1 |  |  |  | IC50 [11]: < 500 nM; IC50 [12]: 200 to 1000 nM
Nc1oc2cnccc2c1Nc1ccc(F)c(Cl)c1 | >50% |  |  | Kp at 3 h [3]: 6; Kp at 0.5 h [4]: 9.8; Activity (CT26 [18]): Active; Activity (Mus musculus [19]): 40 - 50%; Kp at 1 h [6]: 10.7
Nc1oc2c(Cl)nccc2c1Nc1ccc(F)c(Cl)c1 | >50% | >=25 - 50% | >=25 - 50% | Activity (CT26 [20]): 26 - 38%; Activity (Mus musculus [21]): 40 - 50%
Nc1oc2c(-c3ccccc3Cl)nccc2c1Nc1ccc(F)c(Cl)c1 | >=25 - 50% |  |  | IC50 [11]: < 500 nM; IC50 [13]: < 200 nM
Nc1oc2c(-c3ccncc3)nc(F)cc2c1Nc1ccc(F)c(F)c1 | >50% | >50% | >=25 - 50% | 
Cc1cc(-c2nccc3c(Nc4cccc(C(F)(F)F)c4)c(N)oc23)ccn1 | >50% |  |  | 
Nc1oc2cnc(F)cc2c1Nc1ccc(F)c(Cl)c1 | >50% | <25% | >=25 - 50% | 
CCOC(=O)Nc1oc2cnccc2c1Nc1ccc(F)c(Cl)c1 |  |  |  | IC50 [11]: > 2000 nM; IC50 [12]: > 1000 nM
Nc1sc2c(-c3ccncc3)cccc2c1Nc1ccc(F)c(Cl)c1 | >=25 - 50% |  |  | 
